The test has as its system NCI-H1876 complex spheroid viability. The test can be described thus: Anticancer human tumor NCI-H1876 cell line growth inhibition [LSD1].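 As to all read-outs here: spheroids exposed to compounds for one week before readout.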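 As to viability, T/C: 100% = DMSO vehicle-treated spheroids so lower means fewer viable cells.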 As to conditions: for viability, T/C: stronger effect = lower value; for IC50: curve of compound. From the text:
Multicellular complex tumor spheroid response to LSD1 Inhibitor Iadademstat in combination with a variety of drugs and investigational agents in selected tumor cell lines
The current study was undertaken to assess response to LSD1 inhibitors in combination with standard-of-care drugs and investigational agents in solid tumor complex spheroid models as well as in the K-562 leukemia. Complex spheroids include a stromal component modeled by human endothelial cells (HUVEC) and fibroblasts modeled by human mesenchymal stem cells (MSCs). The concentration ranges selected for each drug and investigational agent were based upon clinically achievable concentrations if the clinical Cmax of the agent was known.
Compounds. The drugs and investigational agents used in this study are listed on Table 1. All of the agents used, including staurosporine (NSC755774) and gemcitabine (NSC613327), were obtained from the Developmental Therapeutics Program, NCI. FDA-approved anticancer drugs are available from the NCI at http://dtp.nci.nih.gov/branches/dscb/oncology_drugset_explanation.html. Drugs and investigational agents were >95% pure by proton nuclear magnetic resonance (NMR) and liquid chromatography/mass spectrometry (LC/MS). Stock solutions were prepared at 400x in DMSO, stored at -70 degrees C, and diluted in fresh medium prior to their use. The final concentration of DMSO in cell culture wells never exceeded 0.25% (v/v). The FDA-approved anticancer drug set is available from the Developmental Therapeutics Program at https://dtp.cancer.gov/organization/dscb/obtaining/available_plates.htm. All drugs and investigational agents were tested over a range starting from a high concentration at or near the clinical Cmax and decreasing in half-log increments. If the clinical Cmax for an agent had not been determined, the highest concentration tested was 10 microM.
Cell Lines. The patient-derived cancer cell (PDC) lines: 292921-168-R-J2-PDC, K24384-001-R-PDC, and 521955-158-R2-J5-PDC pancreatic carcinomas, 556581-035-R-J1 ovarian carcinoma, 324938-238-R-J1-PDC, 855422-203-R-J1-PDC and 883617-216-R-J1-PDC urothelial bladder carcinomas, 743489-274-T-PDC renal cell carcinoma, 138582-R-J1 Merkel cell tumor, K60290-347-R-J1 and K57222-313-R-J1-PDC glioblastomas, 653999-131-R-J2-PDC, LG0703-F948-PDC, and 349418-098-R-PDC non-small cell lung carcinomas, 885512-296-R-J2-PDC, 171881-019-R-J1-PDC breast carcinomas and 186277-243-T-J2-PDC and 233499-124-R-J2-PDC colon carcinomas were obtained from the NCI Patient-Derived Models Repository (PDMR, https://pdmr.cancer.gov). The established cell lines NCI/ADR-RES (RRID:CVCL_14520 and OVCAR-5 (RRID:CVCL_1628) ovarian carcinomas, 786-O (RRID:CVCL_1051) and A498 (RRID:CVCL_A498) renal cell carcinoma, NCI-H211 (ATCC, cat. CRL-5824; RRID:CVCL_1529), NCI-H196 (ATCC, cat. CRL-5823, RRID:CVCL_1509), SW 1271 (ATCC, cat. CRL-2177, RRID:CVCL_1716) and NCI-H1876 (ATCC, cat. CRL-5902, RRID:CVCL_1503) small cell lung carcinomas, MDA-MB-231 (RRID:CVCL_0062) and MDA-MB-468 (RRID:CVCL_0419)breast carcinomas (10-12). Pooled donor human umbilical vein endothelial cells (HUVEC, Lonza, cat. CC-2519) and human mesenchymal stem cells (hMSC, Lonza, cat. PT-2501) were purchased from Lonza (Walkersville, MD).
Cell Culture. All cells were maintained in an incubator at 37 degrees C and 5% CO2 with 95% humidity. The PDC lines were cultured according to standard operating procedures established by the NCI PDMR (https://pdmr.cancer.gov). Briefly all PDCs were thawed and cultured in Matrigel-coated flasks prepared with a working solution of 1X Ham's F-12 nutrient mix, without supplementation (Invitrogen, Waltham, MA, cat. 11765054), 100 U/mL penicillin-streptomycin (Invitrogen, cat. 15140122), and 2.5% Matrigel (Corning Inc., Corning, NY, cat. 354248) for the first three passages. […]

“And” between values parts separate entries of the source, which are not always exact repeats. Identical values can stand only once.

Broadly, the viability, T/C is the ratio of treated to control. By IC50 is commonly meant the concentration that inhibits the measured activity by half.

As for `Cn1ncnc1C1c2n[nH]c(=O)c3cc(F)cc(c23)NC1c1ccc(F)cc1` (stereo not drawn), the IC50 is above 100 nM. Further, for the setting “compound 0.000316 µM”, the viability, T/C was 100% and 104%. Further, the viability, T/C (compound 0.001 µM) was 95% and 107%. Besides, where the note is “compound 0.00316 µM”, the viability, T/C was 107% and 100%. Moreover, the viability, T/C (compound 0.01 µM) is 107% and 100%. In addition, the viability, T/C (compound 0.0316 µM) was 94.9% and 93.5%. For the setting “compound 0.1 µM”, the viability, T/C is 93.8% and 79.9%.
For the molecule `NS(=O)(=O)OCC1CC(n2ccc3c(NC4CCc5ccccc54)ncnc32)CC1O` (stereo not drawn), the IC50 was 165 nM and 150 nM. Besides, the viability, T/C (compound 0.00949 µM) is 84.9% and 85.4%. For the same molecule, the viability, T/C (compound 0.03 µM) is 66.2% and 63.6%. For the same molecule, for the setting “compound 0.0949 µM”, the viability, T/C is 56.7% and 51.4%. For the same molecule, for the setting “compound 0.3 µM”, the viability, T/C is 43.3% and 49.8%. In addition, the viability, T/C (compound 0.949 µM) was 39% and 40.2%. Moreover, the viability, T/C (compound 3 µM) is 32.8% and 39%.
Regarding `Nc1ccccc1NC(=O)c1ccc(CNC(=O)OCc2cccnc2)cc1`, the IC50 is 176 nM and 77.3 nM. The viability, T/C (compound 0.00949 µM) is 103% and 93.5%. In addition, the viability, T/C (compound 0.03 µM) was 97.7% and 77.7%. Moreover, for the setting “compound 0.0949 µM”, the viability, T/C was 79.1% and 44.3%. Also, for the setting “compound 0.3 µM”, the viability, T/C was 24.9% and 14%. For the same molecule, where the note is “compound 0.949 µM”, the viability, T/C is 10.3% and 4.22%. For the same molecule, the viability, T/C (compound 3 µM) is 8.9% and 0.64%.
Consider `Nc1ccn(C2OC(CO)C(O)C2(F)F)c(=O)n1` (stereo not drawn), for which the IC50 was 3.7 nM and 5.87 nM. For the same molecule, the viability, T/C (compound 0.000949 µM) was 98.6% and 98.7%. Also, the viability, T/C (compound 0.003 µM) is 53.8% and 86.9%. Besides, under “compound 0.00949 µM”, the viability, T/C is 29.2% and 23.5%. Further, the viability, T/C (compound 0.03 µM) was 23.6% and 9.68%. For the same molecule, the viability, T/C (compound 0.0949 µM) is 11.3% and 8.77%. In addition, the viability, T/C (compound 0.3 µM) is 10.5% and 7.09%.
For the molecule `Nc1ncn(C2CC(O)C(CO)O2)c(=O)n1` (stereo not drawn), the IC50 was above 1000 nM. Moreover, where the note is “compound 0.00316 µM”, the viability, T/C is 97.2% and 101%. The viability, T/C (compound 0.01 µM) is 96.9% and 105%. The viability, T/C (compound 0.0316 µM) is 102% and 103%. For the same molecule, where the note is “compound 0.1 µM”, the viability, T/C was 97.4% and 97%. The viability, T/C (compound 0.316 µM) is 86.7% and 106%. Also, the viability, T/C (compound 1 µM) was 86% and 83.6%.
On to `Nc1ncn(C2CC(O)C(CO)S2)c(=O)n1` (stereo not drawn), for which the half-maximal inhibitory concentration (IC50) was above 300 nM. Moreover, the viability, T/C (compound 0.000949 µM) was 105% and 97.8%. For the setting “compound 0.003 µM”, the viability, T/C is 96.8% and 99.5%. In addition, the viability, T/C (compound 0.00949 µM) was 100% and 95.5%. In addition, the viability, T/C (compound 0.03 µM) was 81.2% and 81.3%. Further, the viability, T/C (compound 0.0949 µM) was 83.2% and 71.1%. Besides, the viability, T/C (compound 0.3 µM) is 59.5% and 50.1%.
Take `O=C(C=Cc1cccc(S(=O)(=O)Nc2ccccc2)c1)NO`: the IC50 is 176 nM and 156 nM. For the same molecule, the viability, T/C (compound 0.00949 µM) was 101% and 104%. For the setting “compound 0.03 µM”, the viability, T/C was 98.9% and 104%. For the same molecule, the viability, T/C (compound 0.0949 µM) was 75.1% and 73.1%. Further, where the note is “compound 0.3 µM”, the viability, T/C was 27.6% and 19.1%. The viability, T/C (compound 0.949 µM) is 9.32% and 8.04%. In addition, for the setting “compound 3 µM”, the viability, T/C was 2.33% and 0.42%.
Consider `O=C(C=Cn1cnc(-c2cc(C(F)(F)F)cc(C(F)(F)F)c2)n1)NNc1cnccn1`, for which the IC50 was 94.9 nM and 79.1 nM. The viability, T/C (compound 0.00316 µM) was 99.2% and 92.7%. The viability, T/C (compound 0.01 µM) was 91% and 89.3%. Moreover, for the setting “compound 0.0316 µM”, the viability, T/C is 84.4% and 80%. The viability, T/C (compound 0.1 µM) was 47.8% and 42%. In addition, under “compound 0.316 µM”, the viability, T/C is 23.1% and 16.6%. The viability, T/C (compound 1 µM) is 16.3% and 9.98%.
Take `O=C(c1cc(Cc2n[nH]c(=O)c3ccccc23)ccc1F)N1CCN(C(=O)C2CC2)CC1`: the half-maximal inhibitory concentration (IC50) was 5540 nM and 6100 nM. In addition, under “compound 0.0316 µM”, the viability, T/C is 99.1% and 93.9%. The viability, T/C (compound 0.1 µM) was 96% and 96.3%. Moreover, where the note is “compound 0.316 µM”, the viability, T/C was 91.3% and 97.4%. The viability, T/C (compound 1 µM) is 85.9% and 91.3%. For the same molecule, the viability, T/C (compound 3.16 µM) was 65.4% and 68.3%. The viability, T/C (compound 10 µM) is 33.4% and 36.2%.

Source of the values: PubChem BioAssay AID1918957 (Molecular Pharmacology Branch, DTP, NCI, 2023).
